In ChEMBL document CHEMBL1201862, “PubChem BioAssay data set” (2004):
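Protocol summary: plate cells (96-well), add compound at 5 concentrations, incubate 48 h, interpolate endpoints linearly. Here, GI50 denotes the concentration required for 50% inhibition of growth.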 Activity calls are given as the source filed them. Rule as the data show it: active = GI50 up to about 1.1 µM and inactive = higher.

How the values were obtained:
Test in all cases: NCI anticancer screen, dose series, 48 h
HT-29 = tested on: HT-29
ACHN = tested on: ACHN
OVCAR-4 = tested on: OVCAR-4
SW-620 = tested on: SW-620
SK-MEL-28 = tested on: SK-MEL-28
OVCAR-5 = tested on: OVCAR-5
SNB-19 = tested on: SNB-19
SNB-75 = tested on: SNB-75
SN12C = tested on: SN12C
LOX IMVI = tested on: LOX IMVI
TK-10 = tested on: TK-10
COLO 205 = tested on: COLO 205
NCI-H226 = tested on: NCI-H226
Malme-3M = tested on: Malme-3M
IGROV-1 = tested on: IGROV-1
A498 = tested on: A498
HL-60 = tested on: HL-60
MDA-MB-435 = tested on: MDA-MB-435
NCI/ADR-RES = tested on: NCI/ADR-RES

Measured: GI50

CCN(CC)CCSc1c2ccccc2nc2cc(NCC(=O)Nc3ccccc3-c3ccccc3NC(=O)CNc3ccc4c(SCCN(CC)CC)c5ccccc5nc4c3)ccc12
inactive: HT-29 > 100 µM | ACHN > 100 µM | OVCAR-4 > 88.9 µM | SW-620 > 100 µM | SK-MEL-28 > 100 µM | OVCAR-5 > 100 µM | SNB-19 > 100 µM | SNB-75 > 77.4 µM | SN12C > 100 µM | LOX IMVI > 76.6 µM | TK-10 > 100 µM | COLO 205 > 35.2 µM | NCI-H226 > 100 µM | Malme-3M > 77.3 µM | IGROV-1 > 100 µM | A498 > 100 µM | HL-60 20.3 µM

Clc1ccc(-c2nnc(C34CC5CC(CC(C5)C3)C4)o2)cc1
inactive: HT-29 > 100 µM | ACHN > 100 µM | MDA-MB-435 > 100 µM | OVCAR-4 > 100 µM | SW-620 > 100 µM | SK-MEL-28 > 100 µM | OVCAR-5 > 100 µM | SNB-19 > 100 µM | SNB-75 > 100 µM | SN12C > 100 µM | LOX IMVI > 100 µM | NCI/ADR-RES > 100 µM | COLO 205 > 100 µM | NCI-H226 > 100 µM | Malme-3M > 100 µM | IGROV-1 > 100 µM | A498 > 100 µM | HL-60 > 100 µM

C[C@@H]1OC2(O)[C@H]3CCCN3S(=O)(=O)CCN2C1=O (stereo partly drawn)
inactive: HT-29 > 100 µM | ACHN > 100 µM | OVCAR-4 > 100 µM | SW-620 > 100 µM | SK-MEL-28 > 100 µM | OVCAR-5 > 100 µM | SNB-19 > 100 µM | SNB-75 > 100 µM | SN12C > 100 µM | LOX IMVI > 100 µM | TK-10 > 100 µM | COLO 205 > 100 µM | NCI-H226 > 100 µM | Malme-3M > 100 µM | IGROV-1 > 100 µM | A498 > 100 µM | HL-60 > 100 µM

Oc1cn(-c2ccc(Cl)cc2)nc1-c1n[nH]c(=S)n1-c1ccccc1
inactive: HT-29 19.8 µM | ACHN 18.8 µM | MDA-MB-435 1.95 µM | OVCAR-4 52.6 µM | SW-620 5.07 µM | SK-MEL-28 16.8 µM | OVCAR-5 24.2 µM | SNB-19 16.8 µM | SNB-75 21.1 µM | SN12C 17.8 µM | TK-10 22 µM | NCI/ADR-RES 3.79 µM | COLO 205 23 µM | NCI-H226 6.22 µM | Malme-3M 16.2 µM | IGROV-1 4.6 µM | A498 14 µM | HL-60 4.13 µM

CC(O[Si](c1ccccc1)(c1ccccc1)C(C)(C)C)[C@H](NC(=O)OC(C)(C)C)C(=O)O[Si](c1ccccc1)(c1ccccc1)C(C)(C)C (stereo partly drawn)
inactive: HT-29 11.7 µM | ACHN 10.8 µM | OVCAR-4 1.46 µM | SW-620 16.1 µM | SK-MEL-28 14.3 µM | OVCAR-5 15.9 µM | SNB-19 15.5 µM | SNB-75 15.4 µM | TK-10 16.9 µM | NCI/ADR-RES 14.4 µM | COLO 205 13.2 µM | Malme-3M 16.5 µM | IGROV-1 14.9 µM | A498 > 10 µM | HL-60 14.4 µM

O=c1[nH]c(=O)n(C2CC(O)C(O)C(CO)O2)cc1F (stereo not drawn)
inactive: HT-29 > 100 µM | ACHN > 100 µM | OVCAR-4 > 100 µM | SW-620 > 100 µM | SK-MEL-28 > 100 µM | OVCAR-5 > 100 µM | SNB-19 > 100 µM | SNB-75 > 100 µM | SN12C > 100 µM | LOX IMVI > 100 µM | TK-10 > 100 µM | COLO 205 > 100 µM | NCI-H226 > 100 µM | Malme-3M > 100 µM | IGROV-1 > 100 µM | A498 > 100 µM | HL-60 > 100 µM

Cc1cccc(C(C)(C)C)c1NC(=O)C(=O)C(C(=O)/C=C\c1ccccc1)C1OC(=O)c2ccccc21 (stereo not drawn)
inactive: HT-29 > 100 µM | ACHN > 100 µM | OVCAR-4 > 100 µM | SW-620 > 100 µM | SK-MEL-28 > 100 µM | OVCAR-5 > 100 µM | SNB-19 > 100 µM | SNB-75 > 100 µM | SN12C > 100 µM | LOX IMVI > 100 µM | TK-10 > 100 µM | COLO 205 > 100 µM | NCI-H226 > 100 µM | Malme-3M > 100 µM | IGROV-1 > 100 µM | A498 > 100 µM | HL-60 > 100 µM

COC(=O)/C(=N\NC(=O)C[N+](C)(C)C)C(C(=O)OC)C(=O)C(=O)Nc1ccccc1C(N)=O (stereo not drawn)
inactive: HT-29 > 100 µM | ACHN > 100 µM | OVCAR-4 > 100 µM | SW-620 > 100 µM | SK-MEL-28 > 100 µM | OVCAR-5 > 100 µM | SNB-19 > 100 µM | SNB-75 > 100 µM | SN12C > 100 µM | LOX IMVI > 100 µM | TK-10 > 100 µM | COLO 205 > 100 µM | NCI-H226 > 100 µM | Malme-3M > 100 µM | IGROV-1 > 100 µM | A498 > 100 µM | HL-60 > 100 µM

COC(=O)c1c2c(cc3c1CC1(Cc4cc5c(c(C=O)c4C1)CCCC5)C3)CCCC2 (stereo not drawn)
inactive: HT-29 51.3 µM | ACHN 23.9 µM | MDA-MB-435 > 100 µM | OVCAR-4 34.1 µM | OVCAR-5 > 100 µM | SN12C 70 µM | LOX IMVI > 100 µM | TK-10 97.9 µM | NCI/ADR-RES 94.6 µM | COLO 205 20.7 µM | NCI-H226 80 µM | Malme-3M > 100 µM | IGROV-1 81.5 µM | A498 66.8 µM | HL-60 30 µM

COc1cccc2c1C(=O)c1c(O)c3c(c(O)c1C2=O)CC(O)(C(C)=O)CC3OC1OC(COC(C)=O)C(OC(C)=O)C(OC(C)=O)C1OC(C)=O (stereo not drawn)
inactive: HT-29 25.7 µM | ACHN 17.4 µM | MDA-MB-435 88.7 µM | OVCAR-4 18 µM | SW-620 > 100 µM | SK-MEL-28 85.5 µM | OVCAR-5 24.1 µM | SNB-19 16 µM | SNB-75 9.29 µM | SN12C 48.3 µM | LOX IMVI 29.9 µM | TK-10 22.9 µM | NCI/ADR-RES > 100 µM | COLO 205 79.4 µM | Malme-3M 35.6 µM | IGROV-1 16.3 µM | HL-60 53.8 µM

[O-][S+](C(c1ccccc1)=P(c1ccccc1)(c1ccccc1)c1ccccc1)c1ccc(Cl)cc1 (stereo not drawn)
inactive: HT-29 21.3 µM | ACHN 26.4 µM | MDA-MB-435 11.7 µM | OVCAR-4 17.1 µM | SW-620 23.6 µM | SK-MEL-28 22 µM | OVCAR-5 41.9 µM | SNB-75 60.4 µM | LOX IMVI 20.6 µM | TK-10 31.9 µM | NCI/ADR-RES 66.7 µM | NCI-H226 55.7 µM | IGROV-1 21.8 µM | A498 11.1 µM | HL-60 11.5 µM

COC(=O)C(C(=O)C(=O)Nc1c(C)cccc1C)c1cnc2ccccc2n1 (stereo not drawn)
inactive: HT-29 > 100 µM | ACHN > 100 µM | OVCAR-4 > 100 µM | SW-620 > 100 µM | SK-MEL-28 > 100 µM | OVCAR-5 > 100 µM | SNB-19 > 100 µM | SNB-75 > 100 µM | SN12C > 100 µM | LOX IMVI > 100 µM | TK-10 > 100 µM | COLO 205 > 100 µM | NCI-H226 > 100 µM | Malme-3M > 100 µM | IGROV-1 > 100 µM | A498 > 100 µM | HL-60 > 100 µM

COc1ccc2cc(C(=O)c3ccccc3C(=O)O)ccc2c1
inactive: HT-29 > 100 µM | ACHN > 100 µM | OVCAR-4 > 100 µM | SW-620 > 100 µM | SK-MEL-28 > 100 µM | OVCAR-5 > 100 µM | SNB-19 > 100 µM | SNB-75 > 100 µM | SN12C > 100 µM | LOX IMVI > 100 µM | TK-10 > 100 µM | COLO 205 > 100 µM | NCI-H226 > 100 µM | Malme-3M > 100 µM | IGROV-1 > 100 µM | A498 > 100 µM | HL-60 > 100 µM

O=C(O)c1ccccc1NC(=O)C1CCCCC1
inactive: HT-29 > 100 µM | ACHN > 100 µM | OVCAR-4 > 100 µM | SW-620 > 100 µM | SK-MEL-28 > 100 µM | OVCAR-5 > 100 µM | SNB-19 > 100 µM | SNB-75 > 100 µM | SN12C > 100 µM | LOX IMVI > 100 µM | TK-10 > 100 µM | COLO 205 > 100 µM | NCI-H226 > 100 µM | Malme-3M > 100 µM | IGROV-1 > 100 µM | A498 31.8 µM | HL-60 > 100 µM

N#CCCN(CCC#N)c1ccc(C(=O)NN)cc1
inactive: HT-29 > 100 µM | ACHN > 100 µM | OVCAR-4 > 100 µM | SW-620 > 100 µM | SK-MEL-28 > 100 µM | OVCAR-5 > 100 µM | SNB-19 > 100 µM | SNB-75 > 100 µM | SN12C > 100 µM | LOX IMVI > 100 µM | TK-10 > 100 µM | COLO 205 > 100 µM | NCI-H226 > 100 µM | Malme-3M > 100 µM | IGROV-1 > 100 µM | A498 > 100 µM | HL-60 > 100 µM

CC(=O)NC1C(=O)CC(c2ccccc2)N(C)C1c1ccccc1 (stereo not drawn)
inactive: HT-29 78 µM | ACHN > 100 µM | OVCAR-4 > 100 µM | SW-620 > 100 µM | SK-MEL-28 > 100 µM | OVCAR-5 > 100 µM | SNB-19 > 100 µM | SNB-75 > 100 µM | SN12C > 100 µM | LOX IMVI 6.17 µM | TK-10 > 100 µM | COLO 205 > 100 µM | NCI-H226 > 100 µM | Malme-3M > 100 µM | IGROV-1 > 100 µM | A498 > 100 µM | HL-60 > 100 µM
